Key:
hdl = hdl morpholino injection into one-cell TOPdGFP transgenic zebrafish embryos, in situ hybridization and phenotype; assay type: in vivo
Protocol: (§1) In Situ Hybridizations: In situ hybridization was performed as described previously (Oxtoby and Jowett, 1993). The GFP probe was made by antisense transcription of TOPdGFP, using a T7 promoter present in the construct. The Probe for hdl was made from a full-length clone isolated in our laboratory, subcloned into pCS2+. Probes for pax2.1 (Krauss et al., 1991), tbx6 (Hug et al., 1997), and lef1 (Dorsky et al., 1999) were made as described previously. Images were taken with a Kodak DC290 digital camera and processed with Adobe Photoshop 5.0.
(§2) Morpholino Injections: Morpholino antisense oligonucleotides targeted to lef1 and hdl were obtained from Gene Tools (Corvallis, Oreg.). lef1 MO sequence: 5′- […]-3′ (SE ID NO:3); hdl MO sequence: 5′- […]-3(SEQ ID NO:4).
(§3) Approximately 1 ng of the morpholinos was injected into one-cell homozygous transgenic embryos that were fixed for in situ hybrid-ization at appropriate stages. Injections of control morpholinos produced no effect on TOPdGFP expression.

lef1 = lef1 morpholino injection into one-cell TOPdGFP transgenic zebrafish embryos, in situ hybridization and phenotype; assay type: in vivo
Protocol: as §1, §2, §3

Row | Substance | expression of midbrain marker pax2 (hdl; bud stage) | expression of ventrolateral mesoderm markers spt and tbx6 (hdl; bud stage) | posterior GFP expression (hdl; bud stage) | embryo phenotype (hdl; injection at the one-cell stage, 36 hpf) | anterior TOPdGFP expression (hdl; shield stage or bud stage) | embryo phenotype (lef1; 36 hpf) | TOPdGFP expression in the embryo (lef1; bud stage) | expression of spt and tbx6 (lef1; bud stage) | pax2 expression (lef1; bud stage)
1 | hdl morpholino: Morpholino antisense oligonucleotide targeted to zebrafish hdl, 5′- CTCCGTTTAACTGAGGCATGTTGGC-3 (SEQ ID NO:4), from Gene Tools (all phosphorodiamidate morpholino (PMO)) | anterior expansion | no effect | no effect | phenotype indistinguishable from hdl mutant embryos | does not expand |  |  |  | 
2 | lef1 morpholino: Morpholino antisense oligonucleotide targeted to zebrafish lef1, 5′- CTCCTCCACCTGACAACTGCGGCAT-3′ (SEQ ID NO:3), from Gene Tools (all phosphorodiamidate morpholino (PMO)) |  |  |  |  |  | tail truncations and loss of paraxial mesoderm, but normal head development | striking decrease | decreased expression | no effect
